From US20250361239A1, “PROTEIN DEGRADERS AND USES THEREOF” (ZHUHAI YUFAN BIOTECHNOLOGIES CO., LTD., priority 2022, published 2025)

Experiments:
Assay type in all cases: cell-based
HL60 cells = assay: HL60 cell killing experiment (CellTiter-Glo cell viability); conditions: Homo sapiens, HL-60, 48 h incubation, CTG luminescence
Method in brief: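 Cells seeded at 5×10^4 cells/mL, dosed after 4 h at 37 °C, then grown for 48 h. CellTiter-Glo luminescence read at the time of dosing (G0) and after 48 h (G3). GI50 fitted from proliferation rate versus concentration.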

NCI-H929 cells = assay: NCI-H929 cell killing experiment (CellTiter-Glo cell viability); conditions: Homo sapiens, 48 h incubation, CTG luminescence
Experimental: (§1) NCI-H929 cell lines were purchased from ATCC (Cat #ATCC® CRL-9068™), RPMI1640 media were purchased from ATCC (Cat #ATCC® 30-2001™), FBS was purchased from Gibco (Cat #10091148), celltiter-glo luminescent cell viability assay was purchased from promega (Cat #G7572), and 96-well plates were purchased from coming (Cat #3610).
(§2) 2. Method The effect of compounds on the growth of NCI-H929 cells was determined by measuring cell viability and growth rate. Firstly, cells in the logarithmic growth phase were collected and centrifuged, and the culture supernatant was discarded. The centrifuged cells were resuspended in a fresh complete medium, and the cell density was adjusted to 5×10^4 cells/mL. The resuspended cells were inoculated into two identical opaque 96-well cell culture plates at 100 μL of cell suspension per well, and the cell culture plates were incubated in a cell incubator at 37° C. for 4 h. After 4 h, dilutions (20 μL) of compounds with different concentrations were added. After one of the cell plates was cooled to room temperature, 60 μL of CTG reagent was added, and the luminescence values were read on the instrument as G0. The other one was incubated in a cell incubator for 48 h. After 48 h, 60 μL of CTG reagent was added, and the luminescence values were read on the instrument as G3.
(§3) According to the corresponding proliferation rate and concentration of each gradient concentration well, a gradient curve of cell proliferation was fitted using XLFit software, and the GI50 values of compounds were calculated.

GSPT1 = biological target: T1, GSPT1 (Homo sapiens, UniProt P15170+Q96SW2); assay: Degradation of GSPT1 by the compounds (HiBiT signal in GSPT1/HEK293 hibit cells); conditions: 6 h incubation, Nano Glo HiBiT Lytic Detection
T1 construct: host or cells: HEK293
Method in brief: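 HEK293 cells with HiBiT-tagged GSPT1 seeded overnight, then treated with serial compound dilutions for 6 h at 37° C. Remaining GSPT1 measured by HiBiT lytic luminescence; DC50 from fitted degradation-concentration curve.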

Hep3B cells = assay: Hep3B cell killing experiment (CellTiter-Glo cell viability); conditions: Homo sapiens, 48 h incubation, CTG luminescence
Experimental: as §1, with “Hep3B” for “NCI-H929”, “HB-8064™), EMEM” for “CRL-9068™), RPMI1640”, “30-2003™),” for “30-2001™),”
The effect of compounds on the growth of Hep3B cells was determined by measuring cell viability and growth rate. Firstly, the cells were digested with pancreatin, and the digestion was then terminated with medium. The cells were centrifuged, and the supernatant was discarded. The centrifuged cells were resuspended in a fresh complete medium, and the cell density was adjusted to 5×10^4 cells/mL. The resuspended cells were inoculated into two identical opaque 96-well cell culture plates at 100 μL of cell suspension per well, and the cell culture plates were incubated in a cell incubator at 37° C. overnight. The next day, dilutions (20 μL) of compounds with different concentrations were added. After one of the cell plates was cooled to room temperature, 60 μL of CTG reagent was added. The luminescence values were read on the instrument as G0. The other one was incubated in a cell incubator for 48 h. After 48 h, 60 μL of CTG reagent was added, and the luminescence values were read on the instrument as G3.
as §3

Jurkat cells = assay: Jurkat cell killing experiment (CellTiter-Glo cell viability); conditions: Homo sapiens, 48 h incubation, CTG luminescence
Experimental: as §1, with “Jurkat” for “NCI-H929”, “TIB-152™),” for “CRL-9068™),”
as §2, with “The” for “2. Method The”, “Jurkat” for “NCI-H929”
as §3

Raji cells = assay: Raji cell killing experiment (CellTiter-Glo cell viability); conditions: Homo sapiens, 48 h incubation, CTG luminescence
Experimental: as §1, with “Raji” for “NCI-H929”, “CCL-86™),” for “CRL-9068™),”
as §2, with “The” for “2. Method The”, “Raji” for “NCI-H929”
as §3

Toledo cells = assay: Toledo cell killing experiment (CellTiter-Glo cell viability); conditions: Homo sapiens, 48 h incubation, CTG luminescence
Experimental: as §1, with “Toledo” for “NCI-H929”, “CRL-2631™),” for “CRL-9068™),”
as §2, with “The” for “2. Method The”, “Toledo” for “NCI-H929”
as §3

SU-DHL-2 cells = assay: SU-DHL-2 cell killing experiment (CellTiter-Glo cell viability); conditions: Homo sapiens, 48 h incubation, CTG luminescence
Experimental: as §1, with “SU-DHL-2” for “NCI-H929”, “CRL-2956™),” for “CRL-9068™),”
as §2, with “The” for “2. Method The”, “SU-DHL-2” for “NCI-H929”
as §3

THP-1 cells = assay: THP-1 cell killing experiment (CellTiter-Glo cell viability); conditions: Homo sapiens, 48 h incubation, CTG luminescence
Experimental: as §1, with “THP-1” for “NCI-H929”, “TIB-202™),” for “CRL-9068™),”
as §2, with “The” for “2. Method The”, “THP-1” for “NCI-H929”
as §3

T1 sequence (P15170 whole entry): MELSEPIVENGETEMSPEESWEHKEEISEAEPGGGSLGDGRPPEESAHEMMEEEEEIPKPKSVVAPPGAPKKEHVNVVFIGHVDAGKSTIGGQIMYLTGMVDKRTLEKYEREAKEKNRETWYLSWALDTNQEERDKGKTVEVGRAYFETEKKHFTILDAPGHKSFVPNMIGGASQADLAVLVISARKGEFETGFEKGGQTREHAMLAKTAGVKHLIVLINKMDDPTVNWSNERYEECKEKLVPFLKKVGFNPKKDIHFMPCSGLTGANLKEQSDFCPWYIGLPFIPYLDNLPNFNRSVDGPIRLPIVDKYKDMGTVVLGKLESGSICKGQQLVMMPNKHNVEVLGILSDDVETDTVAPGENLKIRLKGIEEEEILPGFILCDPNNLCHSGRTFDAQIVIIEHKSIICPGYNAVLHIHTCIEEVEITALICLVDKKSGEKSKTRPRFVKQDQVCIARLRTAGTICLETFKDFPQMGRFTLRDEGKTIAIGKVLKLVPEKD
T1 sequence (Q96SW2 whole entry): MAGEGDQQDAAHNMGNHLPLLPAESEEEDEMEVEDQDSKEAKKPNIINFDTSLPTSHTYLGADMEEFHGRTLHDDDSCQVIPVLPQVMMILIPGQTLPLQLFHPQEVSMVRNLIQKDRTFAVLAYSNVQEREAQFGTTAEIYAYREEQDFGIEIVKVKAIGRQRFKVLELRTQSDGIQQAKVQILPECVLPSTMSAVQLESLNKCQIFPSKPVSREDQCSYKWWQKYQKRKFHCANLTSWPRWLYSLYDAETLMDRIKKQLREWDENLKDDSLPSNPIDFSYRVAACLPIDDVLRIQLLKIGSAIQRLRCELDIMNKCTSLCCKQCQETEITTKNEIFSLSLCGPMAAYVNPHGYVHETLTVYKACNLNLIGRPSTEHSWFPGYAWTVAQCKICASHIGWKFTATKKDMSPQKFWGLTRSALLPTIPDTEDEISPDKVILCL
T1 sequence (Q16531 whole entry partner): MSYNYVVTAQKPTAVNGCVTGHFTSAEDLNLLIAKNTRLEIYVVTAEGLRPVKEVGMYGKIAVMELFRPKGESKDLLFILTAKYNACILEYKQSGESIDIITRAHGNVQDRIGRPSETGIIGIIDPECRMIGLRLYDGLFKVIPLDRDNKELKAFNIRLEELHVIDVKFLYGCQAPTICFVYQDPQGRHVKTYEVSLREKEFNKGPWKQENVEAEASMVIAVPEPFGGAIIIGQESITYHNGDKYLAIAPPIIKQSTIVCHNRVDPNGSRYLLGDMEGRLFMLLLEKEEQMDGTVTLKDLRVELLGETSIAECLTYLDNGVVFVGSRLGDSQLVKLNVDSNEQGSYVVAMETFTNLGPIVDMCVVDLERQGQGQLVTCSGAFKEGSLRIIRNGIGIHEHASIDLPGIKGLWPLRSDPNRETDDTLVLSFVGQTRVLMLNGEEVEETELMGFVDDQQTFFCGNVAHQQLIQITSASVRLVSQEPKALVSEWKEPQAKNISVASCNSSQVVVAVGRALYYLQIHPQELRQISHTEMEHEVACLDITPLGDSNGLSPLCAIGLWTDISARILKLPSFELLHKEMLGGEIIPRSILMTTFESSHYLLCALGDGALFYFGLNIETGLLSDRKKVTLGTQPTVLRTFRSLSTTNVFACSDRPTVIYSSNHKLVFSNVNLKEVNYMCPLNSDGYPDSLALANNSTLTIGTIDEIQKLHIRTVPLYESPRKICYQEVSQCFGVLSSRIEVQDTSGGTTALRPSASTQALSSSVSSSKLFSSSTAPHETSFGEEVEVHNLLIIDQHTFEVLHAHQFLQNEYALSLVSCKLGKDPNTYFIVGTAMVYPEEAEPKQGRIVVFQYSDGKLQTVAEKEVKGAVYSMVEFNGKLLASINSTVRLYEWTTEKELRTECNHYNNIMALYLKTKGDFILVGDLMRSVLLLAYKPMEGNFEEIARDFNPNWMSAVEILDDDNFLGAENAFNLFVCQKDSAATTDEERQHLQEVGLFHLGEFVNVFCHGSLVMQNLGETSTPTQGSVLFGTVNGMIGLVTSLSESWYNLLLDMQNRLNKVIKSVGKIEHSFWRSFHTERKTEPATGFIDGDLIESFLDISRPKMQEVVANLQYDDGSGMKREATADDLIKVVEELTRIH

SMILES	DC50 (GSPT1)	GI50 (HL60 cells)	GI50 (NCI-H929 cells)	GI50 (Hep3B cells)	GI50 (Jurkat cells)	GI50 (Raji cells)	GI50 (Toledo cells)	GI50 (SU-DHL-2 cells)	GI50 (THP-1 cells)
COc1ccc(CNc2cccc3c2C(=O)N(C2CCC(=O)NC2=O)C3=O)cc1C(=O)N[C@H]1CC[C@H](c2nc3ccncc3n2C)CC1 (stereo partly shown) [Example 89]	< 100 nM	< 100 nM	–	–	0.5 nM	–	–	1.42 nM	5.65 nM
COc1ccc2nc([C@H]3CC[C@H](C(=O)Nc4cccc(CNc5cccc6c5C(=O)N(C5CCC(=O)NC5=O)C6=O)c4)CC3)sc2n1 (stereo partly shown) [Example 97]	< 100 nM	< 100 nM	–	0.46 nM	–	3.43 nM	–	1.51 nM	2.58 nM

Further lines, with some results ahead:

DC50 (GSPT1)	SMILES	GI50 (HL60 cells)	GI50 (NCI-H929 cells)	GI50 (Hep3B cells)	GI50 (Jurkat cells)	GI50 (Raji cells)	GI50 (Toledo cells)	GI50 (SU-DHL-2 cells)	GI50 (THP-1 cells)
< 100 nM	O=C1CCC(N2C(=O)c3cccc(NCc4cccc(C(=O)NC5CCC(c6nc7ccccc7o6)CC5)c4)c3C2=O)C(=O)N1 (stereo not shown) [Example 16]	< 100 nM	0.96 nM	1.36 nM	4.07 nM	362 nM	–	–	–
< 100 nM	COc1ccc2c(c1)nc([C@H]1CC[C@H](COc3cc(CNc4cccc5c4C(=O)N(C4CCC(=O)NC4=O)C5=O)ccn3)CC1)n2C (stereo partly shown) [Example 75]	< 100 nM	–	–	0.4 nM	1.79 nM	0.45 nM	0.93 nM	–
< 100 nM	COc1ccc2c(c1)nc([C@H]1CC[C@H](NC(=O)c3cc(CNc4cccc5c4C(=O)N(C4CCC(=O)NC4=O)C5=O)ccn3)CC1)n2C (stereo partly shown) [Example 90]	< 100 nM	0.93 nM	–	–	5.88 nM	–	–	4.14 nM
